These results are taken from US20120245213A1, “HUMAN TYPE I TASTE RECEPTOR SUBUNIT 3 MODULATORS AND METHODS OF USING SAME” (priority 2009, published 2012).

A word on the IC50: it is the concentration at which inhibition is half-maximal.

Read-outs that look alike come from different tables or passages of the source.

One assay concerns the target T1, human T1R2+T1R3 receptor (Homo sapiens, UniProt Q7RTX0).
T1 construct: expressed in transfected cells; host or cells: HEK293E
T1 sequence (Q7RTX0 21-852): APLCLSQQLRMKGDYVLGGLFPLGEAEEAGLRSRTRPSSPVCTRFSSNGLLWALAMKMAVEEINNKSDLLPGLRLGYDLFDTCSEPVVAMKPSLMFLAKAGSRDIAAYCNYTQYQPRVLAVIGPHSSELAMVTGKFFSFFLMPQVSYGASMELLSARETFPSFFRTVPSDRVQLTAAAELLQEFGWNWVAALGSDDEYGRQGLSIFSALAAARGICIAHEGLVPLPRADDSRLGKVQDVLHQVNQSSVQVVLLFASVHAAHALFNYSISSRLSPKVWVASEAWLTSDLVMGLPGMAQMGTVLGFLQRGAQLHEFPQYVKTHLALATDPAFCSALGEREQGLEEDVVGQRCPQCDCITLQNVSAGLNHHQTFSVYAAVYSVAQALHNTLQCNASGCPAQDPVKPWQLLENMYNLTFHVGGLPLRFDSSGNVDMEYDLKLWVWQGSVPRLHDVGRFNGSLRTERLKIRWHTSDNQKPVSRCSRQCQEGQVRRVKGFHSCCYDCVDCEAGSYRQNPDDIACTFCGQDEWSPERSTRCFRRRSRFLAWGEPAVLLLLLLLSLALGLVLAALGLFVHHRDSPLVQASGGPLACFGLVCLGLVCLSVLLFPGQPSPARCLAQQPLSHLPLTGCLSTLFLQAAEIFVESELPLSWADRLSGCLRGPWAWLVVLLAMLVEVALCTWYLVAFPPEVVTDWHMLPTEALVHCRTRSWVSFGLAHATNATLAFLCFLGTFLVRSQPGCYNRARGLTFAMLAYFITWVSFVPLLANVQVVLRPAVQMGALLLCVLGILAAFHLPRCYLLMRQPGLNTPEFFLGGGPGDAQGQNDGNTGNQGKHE
T1 sequence (Q8TE23 20-839 partner): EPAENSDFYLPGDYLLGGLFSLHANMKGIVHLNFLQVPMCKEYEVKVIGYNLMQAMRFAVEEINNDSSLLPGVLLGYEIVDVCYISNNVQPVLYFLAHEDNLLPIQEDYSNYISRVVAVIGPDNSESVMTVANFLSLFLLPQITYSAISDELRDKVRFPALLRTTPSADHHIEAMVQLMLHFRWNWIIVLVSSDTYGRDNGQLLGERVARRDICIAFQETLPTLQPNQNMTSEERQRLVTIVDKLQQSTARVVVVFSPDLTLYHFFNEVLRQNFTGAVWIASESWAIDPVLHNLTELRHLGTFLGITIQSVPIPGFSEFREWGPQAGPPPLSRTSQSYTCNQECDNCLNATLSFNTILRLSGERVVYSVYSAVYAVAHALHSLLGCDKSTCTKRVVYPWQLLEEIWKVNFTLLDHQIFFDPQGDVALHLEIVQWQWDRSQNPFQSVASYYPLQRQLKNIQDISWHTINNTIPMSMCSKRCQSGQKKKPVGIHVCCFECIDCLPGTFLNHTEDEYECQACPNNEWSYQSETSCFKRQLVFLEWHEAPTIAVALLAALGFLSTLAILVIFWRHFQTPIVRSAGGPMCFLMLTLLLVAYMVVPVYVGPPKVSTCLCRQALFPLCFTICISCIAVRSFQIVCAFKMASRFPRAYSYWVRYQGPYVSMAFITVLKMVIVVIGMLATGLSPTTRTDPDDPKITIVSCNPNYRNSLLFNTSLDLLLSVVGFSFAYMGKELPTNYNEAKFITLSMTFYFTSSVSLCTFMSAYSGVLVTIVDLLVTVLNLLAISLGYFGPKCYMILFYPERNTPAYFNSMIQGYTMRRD
Kind of assay: Heterologous calcium mobilization assay, HEK293 cells expressing human sweet receptor. The format is cell-based. The following applies: for inhibition of the human sweet receptor: at up to 500 μM. The procedure:
T1R2+T1R3 subunits were transfected into HEK cells along with the promiscuous Gq-type protein G16-gust44. Activation of receptors by agonists was followed using the calcium-sensitive fluorescent dye fluo-4-AM in a 96-well format with the fluorescent microplate reader Flexstation II (Molecular Devices). Inhibitors were added concomitantly with the sweetener sucralose at 2.5 mM (saturating concentration). […] Fluorescence signal (F) is expressed in arbitrary units (AU). The down arrow indicates the injection of the sweetener-inhibitors mixture on the cells. […] Peak calcium signal is expressed as ΔF/F in %, normalized to control (sucralose alone). Data are from a representative experiment, means±SD, done in quadruplicate.
HEK293E cells were cultured at 37° C. in Optimem GlutaMAX culture medium (Invitrogen) supplemented with 4% dialyzed fetal bovine serum. Cells were transfected with the DNA constructs using lipofectamine-2000 according to the manufacturer's protocol (Invitrogen). Briefly, cells were seeded onto 96-well poly-D-lysine plates (Corning) at about 12,500 cells/well 18 hours prior to transfection; and co-transfected with plasmid DNAs encoding […] and G 16-gust44 (0.1 μg total DNA/well; 0.2 μl lipofectamine/well). After 24 hours, the transfected cells were washed once with the culture medium and incubated for another 24 hours. The cells were washed with HBSS supplemented with 20 mM Hepes (HBSS-H), loaded with 3 μM Fluo-4AM (Molecular Probe) in HBSS-H buffer, incubated for 1.5 hours at room temperature, and then washed with HBSS-H and maintained in HBSS-H at 25° C. […] Sweeteners were added 30 seconds after the start of the scan at 2× concentration in 50 μl of HBSS-H while monitoring fluorescence for an additional 200 seconds at 2 seconds intervals. Where tested, inhibitors were added along with sweeteners to the cells.
The data were expressed as the mean±S.E. of quadruplicate or sextuplicate of the F/F values, or were normalized as described. The bar graph and curving-fitting routines were carried out using Graph-Pad Prism 3.0 (GraphPad Software, Inc.).
To determine if phenoxy-herbicides and fibrates had inhibitory properties, a cell-based assay with HEK 293 cells expressing the human sweet receptor composed of hT1R3 and hT1R2 was used.
IC50s are means±SD from at least 3 independent experiments.
For orientation: Calcium flux is commonly read through the fluorescence of an indicator in the cells.

Assay [1] deals with sweet and umami (MSG) taste. Nature of the assay: Psychophysical self-experimentation on taste. The following applies: self-experimentation by one of the inventors. The format is in vivo, human. The source says:
T1R3's role as a critical component of sweet and umami receptors in taste cells is well established (Zhao, supra; and Max, supra). T1R3, like gustducin, has also been implicated in glucose-sensing functions of gut endocrine cells and thereby in glucose homeostasis (Jang, supra).

Setting [2] is: HEK 293 cells, hT1R2+hT1R3, 2.5 mM sucralose, read-out: IC50, inhibition of human sweet receptor.
[3] abbreviates: hT1R2+hT1R3 activated by 2.5 mM sucralose, mean (SD), at least 3 independent experiments, read-out: IC50 (μM (SD)).

With `CC(C)(Oc1ccc(CCNC(=O)c2ccc(Cl)cc2)cc1)C(=O)O` [Bezafibric acid, 2-[4-(2-{[(4-chlorophenyl)carbonyl]amino}ethyl)phenoxy]-2-methylpropanoic acid, reference compound], the IC50 on human T1R2+T1R3 receptor (setting [2]) lay within 30 to 100 µM.

As for `O=C(O)COc1ccc(Cl)cc1` [4-CPA, (4-chlorophenoxy)acetic acid], the IC50 on human T1R2+T1R3 receptor is at least 142 µM.

As to `O=C(O)CCCc1c[nH]c2ccccc12` [IBA, 4-(1H-indol-3-yl)butanoic acid], the “inhibition of the human sweet receptor” value on human T1R2+T1R3 receptor is “did not inhibit”.

Regarding `Cc1cc(Cl)ccc1OC(C)C(=O)O` (centres unmarked) [MCPP, 2-(4-chloro-2-methylphenoxy) propanoic acid], the IC50 at human T1R2+T1R3 receptor fell in the range of 5 to 12 µM.

`Cc1ccc(C)c(OCCCC(C)(C)C(=O)O)c1` [Gemfibrozil, 5-(2,5-dimethylphenoxy)-2,2-dimethylpentanoic acid, reference compound]: on human T1R2+T1R3 receptor (setting [2]), the IC50 was in the range of 30 to 100 µM.

On to `O=C(O)CCc1c[nH]c2ccccc12` [IPA, 3-(1H-indol-3-yl)propanoic acid], for which the “inhibition of the human sweet receptor” value on human T1R2+T1R3 receptor is “did not inhibit”. For the same compound, the IC50 at human T1R2+T1R3 receptor (setting [3]) was over 1000 µM.

Consider `O=C(O)Cc1ccccc1` [PAA, phenylacetic acid], for which the IC50 on human T1R2+T1R3 receptor was at least 142 µM.

Regarding `O=C(O)Cc1c[nH]c2ccccc12` [IAA, 1H-indol-3-ylacetic acid], the “inhibition of the human sweet receptor” value on human T1R2+T1R3 receptor is on record as “did not inhibit”. For the same compound, the IC50 at human T1R2+T1R3 receptor (setting [3]) was over 1000 µM.

For `CC(C)(Oc1ccc(Cl)cc1)C(=O)O` [Clofibric acid, 2-(4-chlorophenoxy)-2-methylpropanoic acid], in assay [1], the “inhibition of sweet taste in vivo” value is recorded as “potently inhibited” and the “inhibition of umami (MSG) taste in vivo” value was “potently inhibited”.

Turning to `O=C(O)Cc1cccc2ccccc12` [NAA, naphthalen-1-ylacetic acid], the IC50 on human T1R2+T1R3 receptor (setting [2]) was at least 142 µM.

In the case of `CC(Oc1cc(Cl)c(Cl)cc1Cl)C(=O)O` (centres unmarked) [2,4,5TPP, 2-(2,4,5-trichlorophenoxy) propanoic acid], the IC50 at human T1R2+T1R3 receptor was 5 to 12 µM.
